Test results reported in patent US20260274807A1 (University of Health Sciences and Pharmacy in St. Louis, priority 2023, published 2026).

Key:
ERRα = molecular target: T1, ERRα (Homo sapiens, UniProt P11474); experiment: ERRE luciferase reporter assay in HEK293 cells transfected with pcDNA3.1 ERRα; type: cell-based; parameters: key to EC50 (ERRα) μM: * <1 μM; ** 1-5 μM; *** >5 μM; i.a. (inactive); settings: HEK293 cells transfected with ERRE reporter construct and pcDNA3.1 ERRα; compound for 24 hours; luciferase activity
T1 construct: expressed in transfected cells; host or cells: HEK293
T1 sequence (P11474 1-423): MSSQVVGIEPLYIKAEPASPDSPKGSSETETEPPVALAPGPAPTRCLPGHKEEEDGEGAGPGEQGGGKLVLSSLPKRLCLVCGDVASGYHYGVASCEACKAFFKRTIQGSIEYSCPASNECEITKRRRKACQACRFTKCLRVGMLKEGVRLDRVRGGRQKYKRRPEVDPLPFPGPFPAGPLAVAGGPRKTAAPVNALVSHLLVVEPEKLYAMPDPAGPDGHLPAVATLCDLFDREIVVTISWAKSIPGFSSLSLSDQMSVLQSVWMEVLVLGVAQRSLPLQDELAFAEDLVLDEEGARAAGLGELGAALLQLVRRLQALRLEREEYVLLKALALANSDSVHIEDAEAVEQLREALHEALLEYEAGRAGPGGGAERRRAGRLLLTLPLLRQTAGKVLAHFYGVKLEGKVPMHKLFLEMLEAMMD
Method: (§1) HEK293 cells were maintained in Dulbecco's modified Eagles medium (DMEM) supplemented with 10% fetal bovine serum at 37° C. under […]. […] Cells were transfected with ERRE reporter construct and pcDNA3.1 ERRα or ERRγ. Twenty-four-hours post-transfection, the cells were treated with vehicle or compound (various concentrations) for 24 hours (4 wells per dose). Luciferase activity was measured using the One-Glo Tox luciferase reporter assay system (Promega) and EC50s were calculated using GraphPad Prism software.

ERRγ = molecular target: T2, ERRγ (Homo sapiens, UniProt P62508); experiment: ERRE luciferase reporter assay in HEK293 cells transfected with pcDNA3.1 ERRγ; type: cell-based; parameters: key to EC50 (ERRγ) μM: * <1 μM; ** 1-5 μM; *** >5 μM; i.a. (inactive); settings: HEK293 cells transfected with ERRE reporter construct and pcDNA3.1 ERRγ; compound for 24 hours; luciferase activity
T2 construct: expressed in transfected cells; host or cells: HEK293
T2 sequence (P62508 1-458): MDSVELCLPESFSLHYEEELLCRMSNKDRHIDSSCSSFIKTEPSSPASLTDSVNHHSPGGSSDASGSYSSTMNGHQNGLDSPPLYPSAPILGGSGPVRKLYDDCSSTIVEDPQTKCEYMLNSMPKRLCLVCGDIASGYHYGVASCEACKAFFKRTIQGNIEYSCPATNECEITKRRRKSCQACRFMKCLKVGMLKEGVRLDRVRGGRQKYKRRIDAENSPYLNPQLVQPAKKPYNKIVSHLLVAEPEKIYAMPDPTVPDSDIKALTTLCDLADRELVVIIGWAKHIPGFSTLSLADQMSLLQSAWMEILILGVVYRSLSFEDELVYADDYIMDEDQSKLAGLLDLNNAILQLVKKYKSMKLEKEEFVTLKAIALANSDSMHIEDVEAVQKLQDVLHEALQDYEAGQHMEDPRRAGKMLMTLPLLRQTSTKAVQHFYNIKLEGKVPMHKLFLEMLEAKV
Method: as §1

COc1ccc(-c2nnc(-c3ccc(Br)cc3)s2)cc1 [Entry 1018, 2-(4-bromophenyl)-5-(4-methoxyphenyl)-1,3,4-thiadiazole]
EC50 (ERRα): < 1 µM
EC50 (ERRγ): 1 to 5 µM

Cc1ccccc1-c1nnc(-c2ccccc2)o1 [Entry 8]
EC50 (ERRα): < 1 µM
EC50 (ERRγ): < 1 µM

Nc1cccc(-c2nnc(-c3ccccc3)o2)c1 [Entry 69, 3-(5-phenyl-1,3,4-oxadiazol-2-yl)aniline]
EC50 (ERRα): < 1 µM
EC50 (ERRγ): < 1 µM

CCCCOc1ccc(-c2nnc(-c3ccccc3Cl)s2)cc1 [Entry 1052, 2-(4-butoxyphenyl)-5-(2-chlorophenyl)-1,3,4-thiadiazole]
EC50 (ERRα): < 1 µM
EC50 (ERRγ): < 1 µM

COc1ccc(-c2nnc(-c3ccc(OC)cc3)o2)cc1 [Entry 30, 2,5-bis(4-methoxyphenyl)-1,3,4-oxadiazole]
EC50 (ERRα): < 1 µM
EC50 (ERRγ): < 1 µM

FC(F)(F)c1ccc(-c2nnc(-c3ccccc3Cl)o2)cc1 [Entry 53, 2-(2-chlorophenyl)-5-(4-(trifluoromethyl)phenyl)-1,3,4-oxadiazole]
EC50 (ERRα): < 1 µM
EC50 (ERRγ): 1 to 5 µM

COc1cccc(-c2nnc(-c3ccc(C(F)(F)F)cc3)o2)c1 [Entry 54, 2-(3-methoxyphenyl)-5-(4-(trifluoromethyl)phenyl)-1,3,4-oxadiazole]
EC50 (ERRα): > 5 µM
EC50 (ERRγ): > 5 µM

Brc1ccc(-c2nnc(-c3ccccc3)o2)cc1 [Entry 9]
EC50 (ERRα): < 1 µM
EC50 (ERRγ): < 1 µM

COc1ccc(-c2nnc(-c3ccccc3Cl)s2)cc1 [Entry 1024, 2-(2-chlorophenyl)-5-(4-methoxyphenyl)-1,3,4-thiadiazole]
EC50 (ERRα): < 1 µM
EC50 (ERRγ): < 1 µM

Cc1ccc(-c2nnc(-c3cccs3)s2)cc1 [Entry 1031, 2-(thiophen-2-yl)-5-(p-tolyl)-1,3,4-thiadiazole]
EC50 (ERRα): < 1 µM
EC50 (ERRγ): < 1 µM

FC(F)(F)c1cccc(-c2nnc(-c3ccco3)o2)c1 [Entry 57, 2-(furan-2-yl)-5-(3-(trifluoromethyl)phenyl)-1,3,4-oxadiazole]
EC50 (ERRα): < 1 µM
EC50 (ERRγ): 1 to 5 µM

FC(F)(F)c1ccc(-c2nnc(-c3cccc4ncccc34)s2)cc1 [Entry 1062, 2-(quinolin-5-yl)-5-(4-(trifluoromethyl)phenyl)-1,3,4-thiadiazole]
EC50 (ERRα): < 1 µM
EC50 (ERRγ): < 1 µM

Cc1ccc(C(=O)Nc2nnc(-c3ccccc3Cl)s2)cc1 [Entry 1034, N-(5-(2-chlorophenyl)-1,3,4-thiadiazol-2-yl)-4-methylbenzamide]
EC50 (ERRα) μM (ERRα): i.a.
EC50 (ERRγ) μM (ERRγ): i.a.

COc1cccc(-c2nnc(-c3ccc(C)cc3)o2)c1 [Entry 41, 2-(3-methoxyphenyl)-5-(p-tolyl)-1,3,4-oxadiazole]
EC50 (ERRα): < 1 µM
EC50 (ERRγ): < 1 µM

O=C(Nc1nnc(-c2ccccc2)s1)c1ccccc1 [Entry 1032, N-(5-phenyl-1,3,4-thiadiazol-2-yl)benzamide]
EC50 (ERRα) μM (ERRα): i.a.
EC50 (ERRγ) μM (ERRγ): i.a.

COc1cccc(-c2nnc(-c3ccccc3)s2)c1 [Entry 1012, 2-(3-methoxyphenyl)-5-phenyl-1,3,4-thiadiazole]
EC50 (ERRα): < 1 µM
EC50 (ERRγ): < 1 µM

FC(F)(F)c1cccc(-c2nnc(-c3ccccc3Cl)o2)c1 [Entry 65, 2-(2-chlorophenyl)-5-(3-(trifluoromethyl)phenyl)-1,3,4-oxadiazole]
EC50 (ERRα): 1 to 5 µM
EC50 (ERRγ): > 5 µM

Cc1ccc(-c2nnc(-c3ccc4ccccc4c3)s2)cc1 [Entry 1044, 2-(naphthalen-2-yl)-5-(p-tolyl)-1,3,4-thiadiazole]
EC50 (ERRα): > 5 µM
EC50 (ERRγ): < 1 µM

COc1ccc(-c2nnc(-c3ccc(Br)cc3)o2)cc1 [Entry 5]
EC50 (ERRα): < 1 µM
EC50 (ERRγ): < 1 µM

Cc1ccc(-c2nnc(-c3ccc(B(O)O)cc3)s2)cc1 [Entry 1055, (4-(5-(p-tolyl)-1,3,4-thiadiazol-2-yl)phenyl)boronic acid]
EC50 (ERRα): < 1 µM
EC50 (ERRγ): < 1 µM

COc1ccccc1-c1nnc(-c2ccccc2)s1 [Entry 1013, 2-(2-methoxyphenyl)-5-phenyl-1,3,4-thiadiazole]
EC50 (ERRα): < 1 µM
EC50 (ERRγ): < 1 µM

FC(F)(F)c1cccc(-c2nnc(-c3ccccc3)o2)c1 [Entry 56, 2-phenyl-5-(3-(trifluoromethyl)phenyl)-1,3,4-oxadiazole]
EC50 (ERRα): < 1 µM
EC50 (ERRγ): < 1 µM

c1ccc(-c2nnc(C34CC5CC(CC(C5)C3)C4)s2)cc1 [Entry 1007, 2-((1S,3S)-adamantan-1-yl)-5-phenyl-1,3,4-thiadiazole]
EC50 (ERRα): < 1 µM
EC50 (ERRγ): < 1 µM

COc1cccc(-c2nnc(-c3ccccc3)s2)c1[N+](=O)[O-] [Entry 1023, 2-(3-methoxy-2-nitrophenyl)-5-phenyl-1,3,4-thiadiazole]
EC50 (ERRα): < 1 µM
EC50 (ERRγ): < 1 µM

FC(F)(F)c1ccc(-c2nnc(-c3ccc4ccccc4n3)o2)cc1 [Entry 48, 2-(quinolin-2-yl)-5-(4-(trifluoromethyl)phenyl)-1,3,4-oxadiazole]
EC50 (ERRα) μM (ERRα): i.a.
EC50 (ERRγ) μM (ERRγ): i.a.

O=[N+]([O-])c1ccc(Br)cc1-c1nnc(-c2ccccc2)o1 [Entry 84, 2-(5-bromo-2-nitrophenyl)-5-phenyl-1,3,4-oxadiazole]
EC50 (ERRα): > 5 µM
EC50 (ERRγ): > 5 µM

O=[N+]([O-])c1ccccc1-c1nnc(-c2cccc(C(F)(F)F)c2)o1 [Entry 62, 2-(2-nitrophenyl)-5-(3-(trifluoromethyl)phenyl)-1,3,4-oxadiazole]
EC50 (ERRα): 1 to 5 µM
EC50 (ERRγ): 1 to 5 µM

O=[N+]([O-])c1cccc(-c2nnc(-c3ccc(C(F)(F)F)cc3)o2)c1 [Entry 51, 2-(3-nitrophenyl)-5-(4-(trifluoromethyl)phenyl)-1,3,4-oxadiazole]
EC50 (ERRα) μM (ERRα): i.a.
EC50 (ERRγ) μM (ERRγ): i.a.

COc1ccc(-c2nnc(-c3ccccn3)o2)cc1 [Entry 24, 2-(4-methoxyphenyl)-5-(pyridin-2-yl)-1,3,4-oxadiazole]
EC50 (ERRα) μM (ERRα): i.a.
EC50 (ERRγ) μM (ERRγ): i.a.

Cc1ccc(-c2nnc(-c3ccccc3[N+](=O)[O-])o2)cc1 [Entry 37, 2-(2-nitrophenyl)-5-(p-tolyl)-1,3,4-oxadiazole]
EC50 (ERRα): < 1 µM
EC50 (ERRγ): < 1 µM

Cc1ccc(-c2nnc(-c3ccccn3)o2)cc1 [Entry 36, 2-(pyridin-2-yl)-5-(p-tolyl)-1,3,4-oxadiazole]
EC50 (ERRα): < 1 µM
EC50 (ERRγ): < 1 µM

COc1ccc(-c2nnc(-c3ccccc3)o2)c([N+](=O)[O-])c1 [Entry 86, 2-(4-methoxy-2-nitrophenyl)-5-phenyl-1,3,4-oxadiazole]
EC50 (ERRα): < 1 µM
EC50 (ERRγ): < 1 µM

FC(F)(F)c1cccc(-c2nnc(-c3cccnc3Cl)s2)c1 [Entry 1074, 2-(2-chloropyridin-3-yl)-5-(3-(trifluoromethyl)phenyl)-1,3,4-thiadiazole]
EC50 (ERRα): 1 to 5 µM
EC50 (ERRγ): 1 to 5 µM

Cc1ccc(-c2nnc(-c3ccnc4ccccc34)o2)cc1 [Entry 34, 2-(quinolin-4-yl)-5-(p-tolyl)-1,3,4-oxadiazole]
EC50 (ERRα): < 1 µM
EC50 (ERRγ): < 1 µM

FC(F)(F)c1ccc(-c2nnc(-c3ccccn3)o2)cc1 [Entry 49, 2-(pyridin-2-yl)-5-(4-(trifluoromethyl)phenyl)-1,3,4-oxadiazole]
EC50 (ERRα): < 1 µM
EC50 (ERRγ): < 1 µM

O=[N+]([O-])c1ccccc1Cc1nnc(-c2ccc(C(F)(F)F)cc2)o1 [Entry 16, 2-(2-nitrobenzyl)-5-(4-(trifluoromethyl)phenyl)-1,3,4-oxadiazole]
EC50 (ERRα): < 1 µM
EC50 (ERRγ): < 1 µM
